Assays:
[1] = molecular target: T1, human NaPi-IIb (Homo sapiens, UniProt O95436); assay: Inhibitory effect on 33PO4 uptake into human NaPi-IIb-expressing CHO cells; assay type: cell-based; conditions: read-out: IC50
T1 construct: expressed in transfected cells
T1 sequence (O95436 1-690): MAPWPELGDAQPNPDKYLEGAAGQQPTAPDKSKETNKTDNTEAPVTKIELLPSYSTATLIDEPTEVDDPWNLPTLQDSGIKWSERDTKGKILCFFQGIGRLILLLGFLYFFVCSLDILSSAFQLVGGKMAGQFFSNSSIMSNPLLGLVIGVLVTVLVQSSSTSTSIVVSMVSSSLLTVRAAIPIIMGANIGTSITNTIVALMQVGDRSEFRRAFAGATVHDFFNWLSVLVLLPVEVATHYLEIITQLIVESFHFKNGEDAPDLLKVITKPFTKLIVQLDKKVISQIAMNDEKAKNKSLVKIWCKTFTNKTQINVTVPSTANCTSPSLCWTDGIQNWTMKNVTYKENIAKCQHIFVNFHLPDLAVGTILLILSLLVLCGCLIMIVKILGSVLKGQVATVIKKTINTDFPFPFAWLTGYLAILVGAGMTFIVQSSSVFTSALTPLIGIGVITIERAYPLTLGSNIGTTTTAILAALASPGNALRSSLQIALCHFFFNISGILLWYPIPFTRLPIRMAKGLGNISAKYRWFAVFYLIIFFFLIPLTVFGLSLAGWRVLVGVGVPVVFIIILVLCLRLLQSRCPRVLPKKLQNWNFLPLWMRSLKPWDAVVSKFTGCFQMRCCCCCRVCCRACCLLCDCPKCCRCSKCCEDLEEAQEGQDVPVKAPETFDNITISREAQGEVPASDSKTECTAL
Method in brief: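 Stable human NaPi-IIb CHO line (G418-selected), plated and cultured overnight; ³³PO4 added in buffer A and uptake run at room temperature. Cells washed with ice-cold buffer A, then uptake counted by liquid scintillation.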

[2] = molecular target: T2, human PiT-2 (Homo sapiens, UniProt Q08357); assay: Inhibitory effect on 33PO4 uptake into human PiT-2-expressing CHO cells; assay type: cell-based; conditions: pH 6.5, read-out: IC50 against 33PO4 uptake into human PiT-2-expressing cells
T2 construct: expressed in transfected cells; host or cells: CHO cells
T2 sequence (Q08357 1-652): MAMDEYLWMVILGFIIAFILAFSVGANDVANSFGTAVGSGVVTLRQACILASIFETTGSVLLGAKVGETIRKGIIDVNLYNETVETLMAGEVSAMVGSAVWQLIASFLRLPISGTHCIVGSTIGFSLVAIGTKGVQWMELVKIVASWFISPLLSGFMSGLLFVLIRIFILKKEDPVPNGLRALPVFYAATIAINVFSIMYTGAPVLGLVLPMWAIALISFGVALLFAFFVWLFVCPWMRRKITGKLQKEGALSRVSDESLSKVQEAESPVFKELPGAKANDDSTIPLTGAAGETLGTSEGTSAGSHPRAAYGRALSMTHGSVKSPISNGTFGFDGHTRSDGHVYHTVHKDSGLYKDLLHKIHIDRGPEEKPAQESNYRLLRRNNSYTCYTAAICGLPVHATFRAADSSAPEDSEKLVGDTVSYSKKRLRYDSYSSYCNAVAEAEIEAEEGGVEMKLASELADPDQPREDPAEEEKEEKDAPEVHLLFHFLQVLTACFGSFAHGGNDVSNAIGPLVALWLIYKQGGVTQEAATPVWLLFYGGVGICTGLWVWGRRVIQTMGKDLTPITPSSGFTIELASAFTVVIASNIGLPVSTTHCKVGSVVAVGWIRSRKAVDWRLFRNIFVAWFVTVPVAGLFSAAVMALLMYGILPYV
Method in brief: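 CHO cells transfected with human PiT-2 or empty vector, then exposed to ^33PO4 at room temperature after compound preincubation. Uptake counted by scintillation. Inhibition computed from PiT-2 minus vector-cell uptake, relative to the DMSO control.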

[3] = system: adenine-induced renal failure rat; assay: Suppressive effect on rise in serum phosphorus concentration of adenine-induced renal failure rat (0.1% in feed, 3 days); assay type: in vivo; conditions: feed or water, 72 h, 0.1% of mass concentration in feed, read-out: Rate of inhibition (%) (suppression of a rise in serum phosphorus concentration)
Description: Test Example 5: Suppressive Effect on Rise in Serum Phosphorus Concentration of Adenine-Induced Renal Failure Rat
Adenine was forcedly administered orally to each Wistar male rat (7-8 weeks old) to impair renal functions and thereby prepare a hyperphosphatemia model (Katsumata K, Kusano K, Hirata M, Tsunemi K, Nagano N, Burke S K, Fukushima N. Sevelamer hydrochloride prevents ectopic calcification and renal osteodystrophy in chronic renal failure rats. Kidney Int. 2003 August; 64 (2): 441-50). Each test compound was mixed at a ratio of 0.1% of mass concentration with feed. The animal was fed with a given amount of the feed for 3 days. A group given feed non-supplemented with a test compound was used as a reference pathological group, and an adenine-unadministered group given feed non-supplemented with a test compound was used as a normal group. […] Serum phosphorus concentrations were measured by the Fiske-Subbarow method. The rate of suppression of a rise in serum phosphorus concentration was determined according to the following expression: Rate (%) of suppression of a rise in serum phosphorus concentration=(1−[(Serum phosphorus concentration of the test compound-treated pathological group)−(Serum phosphorus concentration of the normal group)]/[(Serum phosphorus concentration of the reference pathological group)−(Serum phosphorus concentration of the normal group)])×100

IC50 [1]: 2.8 µM
IC50 [2]: 3.6 µM
SMILES: C[C@]12CCCN1N(Cc1cccc(F)c1F)C(=O)C(C(=O)Nc1ccc(C(F)(F)F)cc1-c1cc(C(F)(F)F)ncn1)=C2O [Example 21, (4aR)-1-[(2,3-Difluoro-phenyl)methyl]-4-hydroxy-4a-methyl-2-oxo-N-[4-(trifluoromethyl)-2-[6-(trifluoromethyl)pyrimidin-4-yl]phenyl]-6,7-dihydro-5H-pyrrolo [1,2-b]pyridazine-3-carboxamide]
inhibition in vivo at 0.1 %, 0.1 % in feed [3]: 24%
